# Experimental data from ChEMBL document CHEMBL3217571, “Structureactivity relationships of novel iodinated quinoline-2-carboxamides for targeting the translocator protein” (Medchemcomm, 2013).
# What was measured:
# [1] = Permeability of the compound using immobilized artificial membrane; type: physicochemical
# serum albumin = serum albumin (Homo sapiens, UniProt P02768); assay: Binding affinity to human serum albumin by HPLC analysis; type: ADME; settings: read-out: PB (converted)
# Translocator protein = Translocator protein (Rattus norvegicus, UniProt P16257); assay: Displacement of [3H]-PK11195 from TSPO in Sprague-Dawley rat brain homogenates after 90 mins by liquid scintillation counting analysis; type: tissue-based
# Translocator protein, sequence (P16257 whole entry, looked up): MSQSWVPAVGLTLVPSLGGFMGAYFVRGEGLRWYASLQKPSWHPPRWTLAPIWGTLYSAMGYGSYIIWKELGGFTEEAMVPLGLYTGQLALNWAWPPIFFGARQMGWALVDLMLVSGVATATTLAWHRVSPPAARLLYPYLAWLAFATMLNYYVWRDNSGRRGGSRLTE
# serum albumin, sequence (P02768 whole entry): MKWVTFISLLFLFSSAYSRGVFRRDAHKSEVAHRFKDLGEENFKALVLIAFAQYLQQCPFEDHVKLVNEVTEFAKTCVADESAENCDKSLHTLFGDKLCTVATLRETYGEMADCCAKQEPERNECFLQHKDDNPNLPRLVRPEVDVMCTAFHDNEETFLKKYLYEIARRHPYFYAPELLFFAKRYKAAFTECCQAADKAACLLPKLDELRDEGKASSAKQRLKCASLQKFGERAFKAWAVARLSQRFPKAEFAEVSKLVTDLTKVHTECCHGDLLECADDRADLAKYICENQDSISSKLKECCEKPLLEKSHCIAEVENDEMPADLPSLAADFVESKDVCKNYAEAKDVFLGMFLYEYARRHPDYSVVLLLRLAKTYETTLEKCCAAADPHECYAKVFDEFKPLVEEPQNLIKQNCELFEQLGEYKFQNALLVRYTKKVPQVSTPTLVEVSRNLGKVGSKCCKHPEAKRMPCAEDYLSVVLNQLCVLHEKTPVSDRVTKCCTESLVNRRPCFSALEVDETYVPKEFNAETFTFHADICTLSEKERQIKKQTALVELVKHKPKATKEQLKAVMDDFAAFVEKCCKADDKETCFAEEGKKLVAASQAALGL
Pm [1],fraction unbound (serum albumin),Ki (Translocator protein) [nM],SMILES
0.25,0.122,5740,O=C(c1cc(-c2ccccc2)c2cc(F)ccc2n1)N1CCOCC1
0.55,0.0498,1340,CN(C)C(=O)c1nc2ccccc2c(-c2ccccc2)c1CI
0.54,0.047,27.8,O=C(c1nc2ccccc2c(-c2ccccc2)c1CI)N1CCOCC1
0.55,0.0462,29900,O=C(c1cc(-c2ccccc2)c2cc(I)ccc2n1)N1CCOCC1
0.41,0.0181,76100,O=C(c1cc(-c2ccccc2)c2cccc(I)c2n1)N1CCOCC1
0.26,0.0876,929,O=C(c1cc(-c2ccccc2I)c2ccccc2n1)N1CCOCC1
0.67,0.0591,5.01,CCN(CC)C(=O)c1cc(-c2ccccc2I)c2ccccc2n1
0.64,0.0772,,CCC(C)N(C)C(=O)c1cc2ccccc2c(-c2ccccc2Cl)n1 (stereo not drawn) [PK-11195]
